From patent publication US10538532B2, “Hepatitis B antiviral agents” (ENANTA PHARMACEUTICALS, INC., priority 2016, dated 2020)
Read-outs that look alike come from different tables or passages of the source.

Columns and labels:
HBV = assay: HepAD38 antiviral assay: reduction of viral product accumulation (virion DNA by qPCR, HBsAg or HBeAg by ELISA); format: cell-based, hepatitis B virus; conditions: read-out: HepAD38 EC50
Procedure, shortened: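 EC50 values represent 50% reduction of viral product accumulation in lysates or supernatants relative to untreated controls, with virion DNA read by qPCR and HBsAg/HBeAg by ELISA. Measurements followed 5 days of treatment, or 8 days with compound renewed on d2 and d5. Cells were tetracycline-depleted HepAD38 at 35,000/well, dosed with a 1:200 dilution of DMSO stocks.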

[1] = Compound toxicity, ATPLite total ATP levels; format: cell-based; conditions: human, HepAD38 cells, three days after compound addition, concentration reducing total ATP levels by 50% relative to no drug controls
Protocol: Methods: HepAD38 cells are maintained as previously reported (Ladner et al, Antimicrob. Agents Chemother. 1997, […], 1715). Briefly, cells are passaged upon attaining confluency in DMEM/F12 media in the presence of 10% FBS, Penn/Strep, 250 μg/mL G418, and 1 ug/ml tetracycline. Novel compounds are screened by first washing cells three times with PBS to remove tetracycline, and plating in 96 well plates at 35,000 cells/well. Compounds dissolved in DMSO are then diluted 1:200 into wells containing cells. Five days after compound addition, material is harvested for analysis. For an extended 8 day analysis, cells are plated and treated as described above, but media and compound are refreshed on d2 and d5 post initial treatment.
Compound toxicity is evaluated by seeding cells at 15,000 cells/well and treating with compound as described above.

[2] = Hepatitis B virus, HePAD38, 120 h, HepAD38 cells, five days after compound addition, concentration reducing viral product accumulation by 50% relative to no drug controls
[3] = HepAD38 cells, five days after compound addition, concentration reducing viral product accumulation by 50% relative to no drug controls

| SMILES | EC50 (HBV; [2]) [nM] | other results |
| --- | --- | --- |
| O=C(Nc1cc(F)c(F)c(F)c1)c1ccc(Cl)c(S(=O)(=O)[C@H]2CC3CCC(C2)[C@H]3c2ncc[nH]2)c1 [Example 303] | < 100 | CC50 at 3 days ([1]; class symbols): < 10 µM |
| [N-]=[N+]=NC[C@]1(O)C2CCC1C[C@H](S(=O)(=O)c1cc(C(=O)Nc3cc(F)c(F)c(F)c3)ccc1Cl)C2 [Example 258] | < 100 | CC50 at 3 days ([1]; numeric bounds): > 12.5 µM |
| C[C@]1(S(=O)(=O)c2cc(C(=O)Nc3cc(F)c(F)c(F)c3)ccc2Cl)CC[C@H](O)CC1 [Example 17] | 100 to 400 | CC50 at 3 days ([1]; class symbols): > 25 µM |
| O=C(Nc1cc(F)c(F)c(F)c1)c1ccc(Cl)c(S(=O)(=O)[C@H]2CC3CCC(C2)[C@]3(O)CO)c1 [Example 324] | – | EC50 (HBV; [3]): < 100 nM; CC50 at 3 days ([1]; numeric bounds): > 12.5 µM |
| CS(=O)(=O)NC[C@]1(O)CC2CC[C@@H](C1)[C@H]2S(=O)(=O)c1cc(C(=O)Nc2cc(F)c(F)c(F)c2)ccc1Cl [Example 307] | < 100 | CC50 at 3 days ([1]; class symbols): > 25 µM |
| O=C(Nc1cc(F)c(F)c(F)c1)c1ccc(Cl)c(S(=O)(=O)[C@H]2CC3CCC(C2)[C@@]3(O)c2nccs2)c1 [Example 301] | > 400 | CC50 at 3 days ([1]; class symbols): 10 to 25 µM |
| [N-]=[N+]=NC[C@@H]1CC2CC[C@@H](C1)[C@H]2S(=O)(=O)c1cc(C(=O)Nc2cc(F)c(F)c(F)c2)ccc1Cl [Example 304] | 100 to 400 | CC50 at 3 days ([1]; numeric bounds): > 6.25 µM |
| [N-]=[N+]=N[C@]1(CO)CC2CC[C@@H](C1)[C@H]2S(=O)(=O)c1cc(C(=O)Nc2cc(F)c(F)c(F)c2)ccc1Cl [Example 287] | 100 to 400 | CC50 at 3 days ([1]; class symbols): > 25 µM |
| CS(=O)(=O)NC[C@]1(O)C2CCC1C[C@H](S(=O)(=O)c1cc(C(=O)Nc3cc(F)c(F)c(F)c3)ccc1Cl)C2 [Example 273] | < 100 | CC50 at 3 days ([1]; numeric bounds): > 12.5 µM |
| O=C(Nc1cc(F)c(F)c(F)c1)c1ccc(Cl)c(S(=O)(=O)[C@H]2CC3CCC(C2)[C@]3(O)CNS(=O)(=O)C2CC2)c1 [Example 294] | < 100 | CC50 at 3 days ([1]; numeric bounds): > 6.25 µM |
| O=C(Nc1cc(F)c(F)c(F)c1)c1ccc(Cl)c(S(=O)(=O)[C@H]2CC3CCC(C2)[C@]3(O)c2cccnc2)c1 [Example 331] | < 100 | CC50 at 3 days ([1]; class symbols): 10 to 25 µM |
| C[C@]1(S(=O)(=O)c2cc(C(=O)Nc3cc(F)c(F)c(F)c3)ccc2Cl)CC[C@@H](O)CC1 [Example 16] | 100 to 400 | CC50 at 3 days ([1]; class symbols): > 25 µM |
| [N-]=[N+]=NC[C@]1(O)C2CCC1C[C@@H](S(=O)(=O)c1cc(C(=O)Nc3cc(F)c(F)c(F)c3)ccc1Cl)C2 [Example 257] | < 100 | CC50 at 3 days ([1]; class symbols): > 25 µM |
| O=C(Nc1cc(F)c(F)c(F)c1)c1ccc(Cl)c(S(=O)(=O)C2(CCCO)CCCCC2)c1 [Example 88] | > 400 | – |
| CC(C)(c1ccncc1)S(=O)(=O)c1cc(C(=O)Nc2cc(F)c(F)c(F)c2)ccc1Cl [Example 121] | > 400 | – |
| C=CC[C@]1(O)CC2CCC(C1)[C@@H]2S(=O)(=O)c1cc(C(=O)Nc2cc(F)c(F)c(F)c2)ccc1Cl [Example 173] | < 100 | – |
| O=C(Nc1cc(F)c(F)c(F)c1)c1ccc(Cl)c(SC2CCC=CCC2)c1 [Example 63] | > 400 | – |
| O=C(Nc1cc(F)c(F)c(F)c1)c1ccc(Cl)c(S(=O)(=O)[C@H]2C3CC[C@H]2C[C@](O)(/C=N/OCc2ccc(-c4ccccc4)cc2)C3)c1 [Example 224] | 100 to 400 | – |
| CN(C)c1ccc(C(=O)Nc2cc(F)c(F)c(F)c2)cc1S(=O)(=O)[C@H]1C2CC[C@H]1C[C@](O)(COS(C)(=O)=O)C2 [Example 144] | > 400 | – |
| C/[N+]([O-])=C\[C@]1(O)CC2CC[C@@H](C1)[C@H]2S(=O)(=O)c1cc(C(=O)Nc2cc(F)c(F)c(F)c2)ccc1Cl [Example 196] | < 100 | – |
| O=C(Nc1cc(F)c(F)c(F)c1)c1ccc(Cl)c(S(=O)(=O)[C@H]2C3CC[C@H]2C(O)[C@](O)(CO)C3)c1 (stereo partly drawn) [Example 156] | < 100 | – |
| CO[C@]1(CO)CC2CC[C@@H](C1)[C@H]2S(=O)(=O)c1cc(C(=O)Nc2cc(F)c(F)c(F)c2)ccc1Cl [Example 152] | < 100 | – |
| O=C1CCC(S(=O)(=O)c2cc(C(=O)Nc3cc(F)c(F)c(F)c3)ccc2Cl)CC1 [Example 2] | 100 to 400 | – |
| O=C(Nc1cc(F)c(F)c(F)c1)c1ccc(Cl)c(S(=O)(=O)C[C@@H]2CC3CC2[C@H](O)[C@@H]3O)c1 (stereo partly drawn) [Example 242] | 100 to 400 | – |
| N[C@H]1CC[C@H](S(=O)(=O)c2cc(C(=O)Nc3cc(F)c(F)c(F)c3)ccc2Cl)CC1 [Example 72] | > 400 | – |
| O=C(Nc1cc(F)c(F)c(F)c1)c1ccc(Cl)c(S(=O)(=O)C[C@@H]2C3CC[C@H]2C[C@@H](O)C3)c1 [Example 181] | < 100 | – |
| O=C1OC[C@@]2(CC3CC[C@@H](C2)[C@H]3S(=O)(=O)c2cc(C(=O)Nc3cc(F)c(F)c(F)c3)ccc2Cl)O1 [Example 155] | < 100 | – |

| SMILES | EC50 (HBV; [2]) [nM] | other results |
| --- | --- | --- |
| COC(=O)C1CON(C)[C@@]12CC1CC[C@@H](C2)[C@H]1S(=O)(=O)c1cc(C(=O)Nc2cc(F)c(F)c(F)c2)ccc1Cl (stereo partly drawn) [Example 217] | > 400 | – |
| O=C1CC2CC[C@@H](C1)[C@H]2CS(=O)(=O)c1cc(C(=O)Nc2cc(F)c(F)c(F)c2)ccc1Cl [Example 180] | < 100 | – |
| C=CCO/N=C/[C@]1(O)CC2CC[C@@H](C1)[C@H]2S(=O)(=O)c1cc(C(=O)Nc2cc(F)c(F)c(F)c2)ccc1Cl [Example 204] | < 100 | – |
| CCOC(=O)C(C)S(=O)(=O)c1cc(C(=O)Nc2cc(F)c(F)c(F)c2)ccc1Cl (stereo not drawn) [Example 94] | > 400 | – |
| O=C(Nc1cc(F)c(F)c(F)c1)c1ccc(Cl)c(S(=O)(=O)[C@H]2C[C@H]3CC[C@@H](C2)O3)c1 [Example 357] | 100 to 400 | – |
| NCC(=O)NC[C@]1(O)C2CCC1C[C@@H](S(=O)(=O)c1cc(C(=O)Nc3cc(F)c(F)c(F)c3)ccc1Cl)C2 [Example 350] | 100 to 400 | – |
| O=C(Nc1ccc(F)c(Cl)c1)c1ccc(Cl)c(S(=O)(=O)[C@H]2CC[C@H](O)CC2)c1 [Example 52] | 100 to 400 | – |
| C[C@H](NC(=O)OC(C)(C)C)C(=O)O[C@H]1CC[C@H](S(=O)(=O)c2cc(C(=O)Nc3cc(F)c(F)c(F)c3)ccc2Cl)CC1 [Example 5] | 100 to 400 | – |
| CC(C)(C)O/N=C/[C@]1(O)CC2CC[C@@H](C1)[C@H]2S(=O)(=O)c1cc(C(=O)Nc2cc(F)c(F)c(F)c2)ccc1Cl [Example 203] | < 100 | – |
| O=C(Nc1cc(F)c(F)c(F)c1)c1ccc(Cl)c(S(=O)(=O)[C@H]2C3CC[C@H]2C[C@](O)(/C=N/OCc2ccc([N+](=O)[O-])cc2)C3)c1 [Example 234] | 100 to 400 | – |
| CN1CCC(S(=O)(=O)c2cc(C(=O)Nc3cc(F)c(F)c(F)c3)ccc2Cl)CC1 [Example 96] | > 400 | – |
| CC1(C)O[C@H]2[C@H](CO[C@@H]2CS(=O)(=O)c2cc(C(=O)Nc3cc(F)c(F)c(F)c3)ccc2Cl)O1 [Example 107] | > 400 | – |
| CCO/N=C/[C@]1(O)CC2CC[C@@H](C1)[C@H]2S(=O)(=O)c1cc(C(=O)Nc2cc(F)c(F)c(F)c2)ccc1Cl [Example 202] | < 100 | – |
| O=C(Nc1cc(F)c(F)cn1)c1ccc(Cl)c(S(=O)(=O)[C@H]2CC[C@H](O)CC2)c1 [Example 43] | > 400 | – |
| C[C@H](N)C(=O)NC[C@]1(O)C2CCC1C[C@@H](S(=O)(=O)c1cc(C(=O)Nc3cc(F)c(F)c(F)c3)ccc1Cl)C2 [Example 351] | 100 to 400 | – |
| N#CC1CON(Cc2ccccc2)C1[C@]1(O)CC2CC[C@@H](C1)[C@H]2S(=O)(=O)c1cc(C(=O)Nc2cc(F)c(F)c(F)c2)ccc1Cl (stereo partly drawn) [Example 209] | > 400 | – |
| COC(=O)C1=CON(Cc2ccccc2)C1[C@]1(O)CC2CC[C@@H](C1)[C@H]2S(=O)(=O)c1cc(C(=O)Nc2cc(F)c(F)c(F)c2)ccc1Cl (stereo partly drawn) [Example 216] | – | EC50 (HBV; [3]): > 400 nM |
| COC(=O)C1CON(Cc2ccccc2)C1C1=C[C@@H]2CCC(C1)[C@@H]2S(=O)(=O)c1cc(C(=O)Nc2cc(F)c(F)c(F)c2)ccc1Cl (stereo partly drawn) [Example 214] | 100 to 400 | – |
| C[Si](C)(C)C#C[C@@]1(O)CC2CC[C@@H](C1)[C@H]2S(=O)(=O)c1cc(C(=O)Nc2cc(F)c(F)c(F)c2)ccc1Cl [Example 160] | – | EC50 (HBV; Hepatitis B virus, HePAD38, 120 h): 100 to 400 nM |
| O=C(Nc1cc(F)c(F)c(F)c1)c1ccc(Cl)c(S(=O)(=O)[C@H]2CC3CCC(C2)[C@@]3(O)CO)c1 [Example 223] | < 100 | – |
| CCCSc1cc(C(=O)Nc2cc(F)c(F)c(F)c2)ccc1Cl [Example 13] | > 400 | – |
| O=C(Nc1cc(F)c(F)c(F)c1)c1ccc(Cl)c(S(=O)(=O)[C@H]2C3CC[C@H]2CC(O)C(O)C3)c1 (stereo partly drawn) [Example 120] | < 100 | – |
| C#C[C@@]1(O)CC2CC[C@@H](C1)[C@H]2S(=O)(=O)c1cc(C(=O)Nc2cc(F)c(F)c(F)c2)ccc1Cl [Example 161] | < 100 | – |
| O=C(Nc1cc(F)c(F)c(F)c1)c1ccc(Cl)c(S(=O)(=O)[C@H]2CC3CCC(C2)[C@H]3CO)c1 [Example 249] | 100 to 400 | – |
| O=C(Nc1cc(F)c(F)c(F)c1)c1ccc(Cl)c(S(=O)(=O)C2CC[C@H](O)[C@H](O)C2)c1 (stereo partly drawn) [Example 70] | 100 to 400 | – |
| O=C(Nc1cc(F)c(F)c(F)c1)c1ccc(Cl)c(SCc2ccncc2)c1 [Example 38] | > 400 | – |
